The text below walks through data of patent publication US20250326753A1, “DUAL CXCR4-BTK INHIBITORS” (X4 Pharmaceuticals, Inc., priority 2022, published 2025).

Structures are written as SMILES. Read-outs that look alike come from different tables or passages of the source.

For one experiment, the system named is MWCL-1. Briefly: Apoptosis assay (annexin V flow cytometry) in Waldenstrom's Macroglobulinemia cells. The experiment is classed as cell-based, human. To be noted: Homo sapiens; numeric; read-out: Apoptosis IC50 (μM) in single-mutant WM Cell Lines (MWCL-1). As for the experimental part:
Waldenström's Macroglobulinemia cells (MWCL-1) and the bone marrow stromal cells (BMSCs; HS-27A) were used in this study. The MWCL-1 is a lymphoplasmacytic lymphoma established from the bone marrow aspirate of a patient diagnosed with Waldenström's Macroglobulinemia. It was provided by Dr Stephen M. Ansell (MAYO file number 2021-121; 200 First Street SW, Rochester, Minnesota). This cell line was cultured in RPMI-1640 (Fisher Scientific) containing 10% fetal bovine serum (FBS) (Sigma Aldrich, St Louis, MO), 100U/ml of Penicillin-Streptomycin (Gibco™, ThermoFisher Scientific). The HS-27A bone marrow stromal cells were obtained from ATCC. They were maintained in RPMI 1640 (Fisher Scientific) supplemented with 100U/ml of Penicillin-Streptomycin (Gibco™, ThermoFisher Scientific) and 10% FBS (TakaraBio). Cells were cultured in a 37° C. tissue culture CO2 incubator.
For studies with compounds using a co-culture system of MWCL-1 and BMSCs, BMSCs were cultured in a 96-, 48- or 24-well plates and cultured until the 90% confluence was reached. […] After 1 hour, the MWCL-Icells were added to the BMSC to create a co-culture system. The cells were co-incubated for 72 hours. After incubation time, cell viability, apoptosis, and IgM release were measured.
For studying the effect of compounds on inducing apoptosis of Waldenström Macroglobulinemia cells (MWCL-1). Cells were washed with PBS, resuspended in Annexin V binding buffer (Biolegend), and stained with Alexa Fluor 647 annexin V (Biolegend), Propidium Iodide (BD Pharmigen), and CD45 antibody (Biolegend) for 15 minutes at RT and analyzed by flow cytometry. Data were collected on an CytoFLEX S Flow Cytometer (Beckman Coulter) and analysed with FCS Express Software (De Novo Software). Annexin V positive cells were considered apoptotic.
(In general: A flow cytometer gives signals particle by particle.)

A further experiment has as its system Ramos cell line. To be noted: read-out: IC50, inhibition of cell proliferation, Chu et al. 2018; cited from earlier work.
The next experiment concerns T98G. Briefly: Glioblastoma multiforme cell proliferation assay (CellTiter Glo), T98G. Type of experiment: cell-based. The settings on record: Homo sapiens. The method, then: (§1) Inhibition of glioblastoma multiforme cell proliferation by compounds of the present invention was evaluated in U-87 MG (ATCC; Cat. No. HTB-14; Lot. No. 5018014) and T98G (ATCC; Cat. No. CRL-1690; Lot. No. 58267513) cell lines. These are adherent cell lines isolated from glioblastoma multiforme/malignant glioma, which express both CXCR4 and BTK (see Zhou et al. 2002 and Yue et al. 2017).
(§2) Cell viability was analyzed with the CellTiter Glo Cell assay kit ([…], Cat. No. G7573, Lot. No. 0000474103), according to the manufacturer's instruction.
(§3) U-87 MG and T98G cells were seeded onto 384-well opaque-walled clear bottom plates (Corning, Cat. No. 3765, Lot. No. 34319047) in EMEM (Invitrogen, Cat. No. 11095-080; Lot. No. 2276656) supplemented with 10% FBS (Invitrogen, Cat. No. 10099-141C, Lot. No. 2145169CP), at a seeding density of 1000 or 1200 cells per well, respectively, and then incubated in 5% CO2 at 37° C. overnight.
(§4) Compounds were prepared as stock solutions of 30 mM in DMSO (Sigma, Cat. No. 276855-1L. Lot. No. SHBL5610). Compounds were added to the cells, with 10 dose points in duplicates, in 3-fold dilution from a top concentration of 30 μM (final DMSO concentration […]), and incubated in 5% CO2 at 37° C. for 96 hr.
(§5) The 384-well plates were equilibrated at room temperature for approximately 30 min. 25 μl of CellTiter-Glo® Reagent was added to each well and mixed for 10 min on an orbital shaker to induce cell lysis. The 384-well plates were incubated at room temperature for 10 min to stabilize luminescent signal. Luminescence was detected on a PerkinElmer EnVision Multimode Plate Reader (measurement time 0.1s) as relative luminescence units (RLU).
(In ATP-based viability assays light output follows the ATP content of the culture.)

The test system of another experiment is GBM-U251MG. Nature of the experiment: GBM cell proliferation, U251MG (cell-based cancer efficacy assays). The settings on record: Homo sapiens, U-251; Table 6B.
The target of another experiment is T1, CDK13/CycK (Homo sapiens, UniProt Q14004).
T1 construct: purchased Reaction Biology Europe GmbH
Nature of the experiment: PanQinase kinase panel: CDK13/CycK. Type of experiment: biochemical. To be noted: read-out: INHIBITORY EFFECT @ 1 uM: CDK13/CycK. The method, then: Screening procedures were performed in accordance with the company's on-line protocol [accessed on-line Mar. 25, 2022 at reaction biology.com/assay-protocol-panqinase]. Inhibitory activity of 50% or greater at concentrations of 1 μM are highlighted for all five compounds tested.
For each kinase, the median value of the cpm of three wells was defined as “low control” (n=3). This value reflects unspecific binding of radioactivity to the plate in the absence of a protein kinase but in the presence of the substrate. Additionally, for each kinase the median value of the cpm of three other wells was taken as the “high control,” i.e. full activity in the absence of any inhibitor (n=3). The difference between high and low control of each enzyme was taken as 100% activity.
As part of the data evaluation the low control of each kinase was subtracted from the high control value as well as from their corresponding “compound values”. The residual activity (in %) for each compound well was calculated by using the following formula: Res. Activity (%)=100×[(signal of compound−low control)/(high control−low control)].

The test system of another experiment is WM patients. The settings on record: cited from earlier work.
The next experiment relates to U-87 MG. Briefly: Glioblastoma multiforme cell proliferation assay (CellTiter Glo), U-87 MG. The experiment is classed as cell-based. The settings on record: Homo sapiens. As for the experimental part: as §1, §2, §3, §4, §5

T1 sequence (Q14004 whole entry): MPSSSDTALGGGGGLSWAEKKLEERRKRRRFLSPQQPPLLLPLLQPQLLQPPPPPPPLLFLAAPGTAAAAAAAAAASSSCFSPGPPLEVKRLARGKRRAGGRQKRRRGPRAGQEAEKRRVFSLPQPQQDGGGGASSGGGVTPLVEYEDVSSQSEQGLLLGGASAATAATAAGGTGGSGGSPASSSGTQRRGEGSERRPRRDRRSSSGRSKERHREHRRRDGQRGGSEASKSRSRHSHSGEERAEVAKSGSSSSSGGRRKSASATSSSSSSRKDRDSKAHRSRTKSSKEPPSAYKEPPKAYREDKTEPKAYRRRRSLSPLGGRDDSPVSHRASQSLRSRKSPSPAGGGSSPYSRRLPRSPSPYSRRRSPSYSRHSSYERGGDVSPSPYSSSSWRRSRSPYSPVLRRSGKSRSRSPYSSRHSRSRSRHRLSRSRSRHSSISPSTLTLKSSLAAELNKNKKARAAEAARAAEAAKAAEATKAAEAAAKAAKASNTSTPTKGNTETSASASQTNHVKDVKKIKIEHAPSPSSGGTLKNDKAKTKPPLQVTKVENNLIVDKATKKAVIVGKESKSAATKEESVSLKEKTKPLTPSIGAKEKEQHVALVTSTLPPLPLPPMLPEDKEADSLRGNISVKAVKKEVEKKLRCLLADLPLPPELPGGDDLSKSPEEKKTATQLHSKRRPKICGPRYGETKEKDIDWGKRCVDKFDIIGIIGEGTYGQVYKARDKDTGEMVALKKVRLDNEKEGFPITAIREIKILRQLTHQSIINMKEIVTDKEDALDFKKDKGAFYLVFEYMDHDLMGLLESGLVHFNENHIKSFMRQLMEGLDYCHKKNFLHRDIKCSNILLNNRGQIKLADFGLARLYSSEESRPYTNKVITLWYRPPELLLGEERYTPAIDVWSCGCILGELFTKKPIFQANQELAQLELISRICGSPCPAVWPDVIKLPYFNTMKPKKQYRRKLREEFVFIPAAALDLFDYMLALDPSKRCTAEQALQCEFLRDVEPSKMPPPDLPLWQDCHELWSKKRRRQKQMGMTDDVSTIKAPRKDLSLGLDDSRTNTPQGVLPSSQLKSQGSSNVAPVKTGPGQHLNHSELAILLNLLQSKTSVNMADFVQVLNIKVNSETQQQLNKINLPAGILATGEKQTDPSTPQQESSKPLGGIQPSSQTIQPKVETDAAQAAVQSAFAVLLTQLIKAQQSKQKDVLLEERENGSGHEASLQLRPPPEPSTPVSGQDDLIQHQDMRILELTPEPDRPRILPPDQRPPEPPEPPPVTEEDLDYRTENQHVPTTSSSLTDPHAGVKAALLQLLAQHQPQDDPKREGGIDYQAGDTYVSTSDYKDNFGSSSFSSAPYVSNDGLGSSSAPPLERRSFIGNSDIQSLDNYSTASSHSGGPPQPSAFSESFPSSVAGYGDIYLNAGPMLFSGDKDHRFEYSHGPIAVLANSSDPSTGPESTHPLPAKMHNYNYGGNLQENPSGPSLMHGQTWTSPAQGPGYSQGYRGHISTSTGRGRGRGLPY
T1 sequence (O75909 whole entry partner): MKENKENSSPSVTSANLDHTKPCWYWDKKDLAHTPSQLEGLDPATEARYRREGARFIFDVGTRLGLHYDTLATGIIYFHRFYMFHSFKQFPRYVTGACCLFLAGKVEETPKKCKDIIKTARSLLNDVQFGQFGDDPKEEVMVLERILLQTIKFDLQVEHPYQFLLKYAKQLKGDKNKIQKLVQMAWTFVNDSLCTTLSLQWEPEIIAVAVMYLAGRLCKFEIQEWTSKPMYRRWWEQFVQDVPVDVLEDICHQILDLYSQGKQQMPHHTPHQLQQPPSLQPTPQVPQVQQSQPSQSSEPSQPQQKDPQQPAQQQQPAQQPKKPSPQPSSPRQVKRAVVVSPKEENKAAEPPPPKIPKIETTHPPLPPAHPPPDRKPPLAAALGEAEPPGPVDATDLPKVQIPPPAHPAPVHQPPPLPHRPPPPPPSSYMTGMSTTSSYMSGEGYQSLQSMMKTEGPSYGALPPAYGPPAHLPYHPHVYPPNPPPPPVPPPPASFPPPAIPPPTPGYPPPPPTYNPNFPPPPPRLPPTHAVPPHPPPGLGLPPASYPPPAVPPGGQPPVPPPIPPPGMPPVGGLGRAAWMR

Regarding `C=CC(=O)N1CCC[C@@H](n2nc(-c3ccc(Oc4ccccc4)cc3)c3c(N)ncnc32)C1` [Ibrutinib, ibrutinib, reference compound], the IC50 with MWCL-1 is 4.2 µM; in the experiment with Ramos cell line, 0.87 µM; in the experiment on T98G (96 h, read-out: T98G IC50 (uM)), > 30 µM; in the experiment with T98G (read-out: GBM-T-98G Cell Proliferation IC50 uM) it was 24.4 µM; with GBM-U251MG, 0.31 µM; with U-87 MG (96 h, read-out: U-87 MG IC50 (uM)) it was > 30 µM. Besides, the IC50 in the experiment with U-87 MG (read-out: GBM-U87MG Cell Proliferation IC50 uM) is 28.5 µM. Also, the values for the Emax with T98G (read-out: GBM-T-98G Cell Proliferation Emax %), in the experiment with GBM-U251MG and with U-87 MG (read-out: GBM-U87MG Cell Proliferation Emax %) were 73%, 57% and 52%, respectively. The inhibition at 1 µM on CDK13/CycK was < 50%. Also, the VGPR in the experiment on WM patients (WM patients with MYD88 L265P CXCR4 WT) is given as 44.4%; in the experiment with WM patients (WM patients with double mutations MYD88 L265P CXCR4 WHIM), 9.5%.
